Experimental data published in patent US20180249707A1, “METHOD OF CONTROLLING ALGAE IN A BODY OF WATER” (priority 2013, published 2018).

Test system: Microcystis aeruginosa
Assay: 14-day flask exposure of Microcystis aeruginosa to BADA
Assay type: cell-based
Method: The experiment was conducted for 14 days and was initiated using 100 mL BG-11 medium contained in 200 mL flasks. […] The experiment was initiated by exposing the algae to 0.2, 0.4, 0.8, 1.0, 1.2, 1.4, 1.8, and 2.0 ppm (mg/L) as BADA, 0.5 Cu/L Cutrine®-Plus. The solution was heated in a water bath and diluted to 70 mg/L using warmed deionized water. Cutrine®-Plus stock solution was made at 50 mg/L using deionized water. Three replicates of each exposure concentration, along with three replicates of an untreated reference were tested. Each sample was maintained at room temperature with 12-hours of light and 12-h dark photoperiod. The chlorophyll a concentrations of Microcystis aeruginosa through the 14 day exposure after exposure to concentrations of BADA and Cutrine®-Plus. The results are shown in TABLES 5, and 6, which show the chlorophyll a concentration and the cell density, respectively.

CCCCCCCCCCCCN(CCCN)CCCN [BADA, N,N-bis-(3-aminopropyl) dodecylamine]
0.32 µg/L: In vivo chlorophyll a concentrations of M. aeruginosa cultures (BADA 1.8 ppm, day 3)
5.7E+05 cells/mL: Cell density of M. aeruginosa cultures (BADA 0.2 ppm, day 0 (initial)) | Cell density of M. aeruginosa cultures (BADA 0.4 ppm, day 0 (initial)) | Cell density of M. aeruginosa cultures (BADA 0.8 ppm, day 0 (initial)) | Cell density of M. aeruginosa cultures (BADA 1.0 ppm, day 0 (initial)) | Cell density of M. aeruginosa cultures (BADA 1.2 ppm, day 0 (initial)) | Cell density of M. aeruginosa cultures (BADA 1.4 ppm, day 0 (initial)) | Cell density of M. aeruginosa cultures (BADA 1.8 ppm, day 0 (initial)) | Cell density of M. aeruginosa cultures (BADA 2.0 ppm, day 0 (initial))
0.26 µg/L: In vivo chlorophyll a concentrations of M. aeruginosa cultures (BADA 0.8 ppm, day 3)
0.28 µg/L: In vivo chlorophyll a concentrations of M. aeruginosa cultures (BADA 0.2 ppm, day 3)
reduced: Chlorophyll a content of M. aeruginosa compared to untreated control algae (0.2 to 2.0 ppm (mg/L), by 15 days after start, p<0.01)
0.02 µg/L: In vivo chlorophyll a concentrations of M. aeruginosa cultures (BADA 0.2 ppm, day 14) | In vivo chlorophyll a concentrations of M. aeruginosa cultures (BADA 0.4 ppm, day 14) | In vivo chlorophyll a concentrations of M. aeruginosa cultures (BADA 0.8 ppm, day 14) | In vivo chlorophyll a concentrations of M. aeruginosa cultures (BADA 1.0 ppm, day 14) | In vivo chlorophyll a concentrations of M. aeruginosa cultures (BADA 1.2 ppm, day 14) | In vivo chlorophyll a concentrations of M. aeruginosa cultures (BADA 1.8 ppm, day 14)
0.05 µg/L: In vivo chlorophyll a concentrations of M. aeruginosa cultures (BADA 1.0 ppm, day 7)
0.31 µg/L: In vivo chlorophyll a concentrations of M. aeruginosa cultures (BADA 1.0 ppm, day 3)
0.23 µg/L: In vivo chlorophyll a concentrations of M. aeruginosa cultures (BADA 0.4 ppm, day 3)
0.90 µg/L: In vivo chlorophyll a concentrations of M. aeruginosa cultures (BADA 0.2 ppm, day 0 (initial)) | In vivo chlorophyll a concentrations of M. aeruginosa cultures (BADA 0.4 ppm, day 0 (initial)) | In vivo chlorophyll a concentrations of M. aeruginosa cultures (BADA 0.8 ppm, day 0 (initial)) | In vivo chlorophyll a concentrations of M. aeruginosa cultures (BADA 1.0 ppm, day 0 (initial)) | In vivo chlorophyll a concentrations of M. aeruginosa cultures (BADA 1.2 ppm, day 0 (initial)) | In vivo chlorophyll a concentrations of M. aeruginosa cultures (BADA 1.4 ppm, day 0 (initial)) | In vivo chlorophyll a concentrations of M. aeruginosa cultures (BADA 1.8 ppm, day 0 (initial)) | In vivo chlorophyll a concentrations of M. aeruginosa cultures (BADA 2.0 ppm, day 0 (initial))
0.06 µg/L: In vivo chlorophyll a concentrations of M. aeruginosa cultures (BADA 0.2 ppm, day 7)
0.01 µg/L: In vivo chlorophyll a concentrations of M. aeruginosa cultures (BADA 1.4 ppm, day 14) | In vivo chlorophyll a concentrations of M. aeruginosa cultures (BADA 2.0 ppm, day 14)
<1E+04 cells/mL: Cell density of M. aeruginosa cultures (BADA 0.2 ppm, day 7) | Cell density of M. aeruginosa cultures (BADA 0.2 ppm, day 14) | Cell density of M. aeruginosa cultures (BADA 0.4 ppm, day 7) | Cell density of M. aeruginosa cultures (BADA 0.4 ppm, day 14) | Cell density of M. aeruginosa cultures (BADA 0.8 ppm, day 7) | Cell density of M. aeruginosa cultures (BADA 0.8 ppm, day 14) | Cell density of M. aeruginosa cultures (BADA 1.0 ppm, day 7) | Cell density of M. aeruginosa cultures (BADA 1.0 ppm, day 14) | Cell density of M. aeruginosa cultures (BADA 1.2 ppm, day 7) | Cell density of M. aeruginosa cultures (BADA 1.2 ppm, day 14) | Cell density of M. aeruginosa cultures (BADA 1.4 ppm, day 7) | Cell density of M. aeruginosa cultures (BADA 1.4 ppm, day 14) | Cell density of M. aeruginosa cultures (BADA 1.8 ppm, day 7) | Cell density of M. aeruginosa cultures (BADA 1.8 ppm, day 14) | Cell density of M. aeruginosa cultures (BADA 2.0 ppm, day 7) | Cell density of M. aeruginosa cultures (BADA 2.0 ppm, day 14)
0.29 µg/L: In vivo chlorophyll a concentrations of M. aeruginosa cultures (BADA 1.2 ppm, day 3) | In vivo chlorophyll a concentrations of M. aeruginosa cultures (BADA 1.4 ppm, day 3)
0.40 µg/L: In vivo chlorophyll a concentrations of M. aeruginosa cultures (BADA 2.0 ppm, day 3)
0.04 µg/L: In vivo chlorophyll a concentrations of M. aeruginosa cultures (BADA 1.2 ppm, day 7) | In vivo chlorophyll a concentrations of M. aeruginosa cultures (BADA 1.4 ppm, day 7)
0.03 µg/L: In vivo chlorophyll a concentrations of M. aeruginosa cultures (BADA 0.4 ppm, day 7) | In vivo chlorophyll a concentrations of M. aeruginosa cultures (BADA 0.8 ppm, day 7) | In vivo chlorophyll a concentrations of M. aeruginosa cultures (BADA 1.8 ppm, day 7) | In vivo chlorophyll a concentrations of M. aeruginosa cultures (BADA 2.0 ppm, day 7)
